Laboratory results published in patent US20240122938A1, “METHODS AND COMPOSITIONS FOR TREATING UVEAL MELANOMA” (INSERM (INSTITUT NATIONAL DE LA SANTÉ ET DE LA RECHERCHE …, priority 2019, published 2024).

How the values were obtained:
[1] = single agent, phase I/II; cited from earlier work
Mel270 xenografts = experiment: Subcutaneous tumor xenograft; format: in vivo, athymic nude mice; settings: established Mel270 xenografts; 50 mg/kg intraperitoneal
Procedure: FIG. 2. Effect of ABT-263 on tumor growth in vivo effects. (A) Primary Mel270 and (B) metastatic OMM1 uveal melanoma cells were subcutaneously engrafted into athymic nude mice. Once the tumours reached 100 mm3, mice were treated daily with ABT-263. The arrow indicates the start of the treatment. The growth tumor curves were determined by measuring the tumor volume using the equation V=(L Å˜W2)/2. […] (C-D) Sub-cutaneous tumor weight from control (Ct) and ABT-263-treated mice is shown. Animal experiments were performed in accordance with French law and approved by a local institutional ethical committee. The animals were maintained in a temperature-controlled facility (22° C.) on a 12-h light/dark cycle and provided free access to food (standard laboratory chow diet from UAR, Epinay-S/Orge, France). Human Mel270 uvealmelanoma cells were subcutaneously inoculated into 8-week-old female, immune-deficient, athymic, nude FOXN1nu mice (Harlan Laboratory). When the tumors became palpable (0.1-0.2 cm3), the mice received an intraperitoneal injection of ABT-263 (50 mg/kg), dissolved in 10% DMSO 6 times per week. Control mice were injected with DMSO alone. The growth tumor curves were determined after measuring the tumor volume using the equation V=(L×W2)/2. At the end of the experiment, the mice were euthanized by cervical dislocation.

Mel270 cells = experiment: Cell death / alive cells by Annexin V/DAPI FACS; format: cell-based, human
Procedure: FIG. 5: PERK dampens ABT-263 killing activity. (A) Q-PCR analysis of PERK level in Mel270 uveal melanoma cells treated with control (siCtl) or PERK (siPERK) siRNA for 48 hr. (B) Mel270 cells were treated with control (siCtl) or PERK (siPERK) siRNA for 48 hrs before being exposed to ABT-263 3 μM for 48 hr. FACS analyses of Annexin V/DAPI double staining in […] indicate alive (white) or dead (early, late apoptosis and necrosis in light grey) cells. (C) Mel270 cells were treated with ABT-263 5 μM or GSK2606414 5 μM alone or in combination for 48 h.
(§1) Cells were seeded at a density of 100 000 cells/well, in 6-well plate and treated with ABT-263 for indicated time. Cells were harvested using accutase enzyme, washed twice with ice-cold phosphate-buffered saline, resuspended in a buffer (Hepes 250 mM, NaCl 150 mM, KCl 5 mM, MgCl2 2 mM, CaCl2) 2 mM) with DAPI (1 μg/ml) and Annexin V-Alexa Fluor 647 conjugate (1/100) and incubated for 15 minutes at room temperature (25° C.) in the dark. Samples were immediately analyzed by a flow cytometer (MACS QUANT) using a laser at 405 nm excitation with a bandpass filter at 425 nm and 475 nm for DAPI detection and a laser at 635 nm excitation with a bandpass filter at 650 nm and 665 nm for Alexa Fluor 647 dye. Annexin and DAPI mono- or double positive cells were counted as dead cells.

[2] = Body weight and blood biochemical analysis of xenografted mice; format: in vivo
Procedure: (§2) FIG. 3. ABT-263 reduces tumor growth in vivo. (A) Primary 92.1 uveal melanoma cells were subcutaneously engrafted into athymic nude mice. Once the tumours reached 100 mm3, mice were treated daily with ABT-263. The arrow indicates the start of the treatment. The growth tumor curves were determined by measuring the tumor volume using the equation V=(L Å˜W2)/2. […] (B) Sub-cutaneous tumor weight from control (Ct) and ABT-263-treated mice is shown. (C) Blood biochemical analysis of mice xenografted with OMM1 cells. Serum activity of alanine transaminase (ALT) and aspartate transaminase (AST) was measured in control and ABT-263 by spectrophotometric methods after the end of treatment. Data are presented as mean±SD (n=5 per group). Animal experiments were performed in accordance with French law and approved by a local institutional ethical committee. The animals were maintained in a temperature-controlled facility (22° C.) on a 12-h light/dark cycle and provided free access to food (standard laboratory chow diet from UAR, Epinay-S/Orge, France). Human Mel270 uvealmelanoma cells were subcutaneously inoculated into 8-week-old female, immune-deficient, athymic, nude FOXN1nu mice (Harlan Laboratory). When the tumors became palpable (0.1-0.2 cm3), the mice received an intraperitoneal injection of ABT-263 (50 mg/kg), dissolved in 10% DMSO 6 times per week. Control mice were injected with DMSO alone. The growth tumor curves were determined after measuring the tumor volume using the equation V=(L×W2)/2. At the end of the experiment, the mice were euthanized by cervical dislocation.

[3] = system: ER stress molecules in Mel270 cells; experiment: Western blot of ER stress molecules; format: cell-based, human
Procedure: Western blot of ER stress molecules in Mel270 cells treated with ABT-263 5 μM in the absence or presence of QVD-OPh 20 μM. Representative western blot are shown.
Western blotting was performed as previously described 25,26. Briefly, cell lysates (30 μg) were separated using SDS-PAGE, transferred onto a PVDF membrane and subsequently exposed to the appropriate antibodies, anti-BCL2 (ms-123-PO) was from neomarker, anti-caspase 3 (#610323) was from BD, anti-BAX (#8429) was from sigma, anti-PARP (#9542), anti-BCL-XL (#2762), anti-caspase 9 (#9502) and anti-PUMA (#4976) were from Cell Signaling Technology Inc, anti-MCL1 (#sc-819), anti-NOXA (#56169), and anti-HSP90 (#sc-13119) were from Santa Cruz biotechnology. The proteins were visualized using the ECL system (Amersham).

metastatic cell lines = experiment: Colony formation assay; format: cell-based, human; settings: metastatic versus primary cell lines; data not shown
Procedure: Human uveal melanoma cells were seeded onto 6-well plates. The cells were subsequently placed in a 37° C., 5% C02 incubator. Colonies of cells were grown before being stained with 0.04% crystal violet/2% ethanol in PBS for 30 min. Photographs of the stained colonies were captured. The colony formation assay was performed in duplicate.

[4] = system: 92.1 uveal melanoma cells xenografts; experiment: Subcutaneous tumor xenograft; format: in vivo, athymic nude mice; settings: 92.1 xenografts
Procedure: as §2, with “When the tumors became palpable (0.1-0.2 cm3), the mice received an intraperitoneal injection of ABT-263 (50 mg/kg), dissolved in 10% DMSO 6 times per week. Control mice were injected with DMSO alone.” left out, “At the end of the experiment, the mice were euthanized by cervical dislocation.” left out

92.1 cells = experiment: Cell death / apoptosis; format: cell-based, human; settings: 92.1 cells; similar level as Mel270
Procedure: as §1

[5] = system: PARP, caspase 9 and caspase 3 in primary and metastatic uveal melanoma cells; experiment: Western blot of PARP and caspases; format: cell-based, human
[6] = OMM1-xenografted mice, after end of treatment

SMILES: CC1(C)CCC(c2ccc(Cl)cc2)=C(CN2CCN(c3ccc(C(=O)NS(=O)(=O)c4ccc(N[C@H](CCN5CCOCC5)CSc5ccccc5)c(S(=O)(=O)C(F)(F)F)c4)cc3)CC2)C1 [ABT-263, 4-[4-[[2-(4-chlorophenyl)-5,5-dimethyl-1-cyclohexen-1-yl]methyl]-1-piperazinyl]-N-[[4-[[(1R)-3-(4-morpholinyl)-1-[(phenylthio)methyl]propyl]amino]-3-[(trifluoromethyl)sulfonyl]phenyl]sulfonyl]-benzamide]
- side effects [1]: thrombocytopenia
- tumor growth (Mel270 xenografts): partially effective
- cell death (Mel270 cells; ABT-263 3 μM): do not induce cell death
- PARP cleavage and alive cell percentage, used alone (Mel270 cells; ABT-263 3 μM 48 hr): relative low effect
- ABT-263 effect on viable cells combined with GSK2606414 (Mel270 cells; ABT-263 5 μM + GSK2606414 5 μM, 48 h): improved
- ABT-263 effects and killing efficacy combined with PERK siRNA (Mel270 cells; siPERK 48 hrs then ABT-263 3 μM 48 hr): significantly improved
- serum alanine transaminase (ALT) versus vehicle [2, 6]: no significant differences
- serum aspartate transaminase (AST) versus vehicle [2, 6]: no significant differences
- hepatotoxicity ([2]; in vivo conditions): no hepatotoxicity
- body weight versus vehicle ([2]; xenografted mice, data not shown): no significant differences
- ATF4 and CHOP level ([3]; Mel270 cells): enhanced
- ER stress pathways (BIP, PERK, EIF2α, ATF4, IRE1α, XBP1, ATF6, CHOP) ([3]; kinetics analysis in Mel270): activates all branches of the ER stress pathways
- long-term growth inhibitory activity (colony formation) (metastatic cell lines): more sensitive
- tumor growth [4]: almost no effect
- ABT-263-induced apoptosis with PERK knockdown (92.1 cells): sensitized
- cleavage of PARP, caspase 9 and caspase 3 ([5]; primary and metastatic cells): dose-dependent cleavage
- full-length PARP protein and caspase 3 zymogen ([5]; time course, data not shown): time-dependent disappearance
